Experimental data published in PubChem BioAssay AID1963971 (Molecular Pharmacology Branch, DTP, NCI, 2024).

System: 953936-095-R-J2-PDC spheroids with HUVEC/MSC, viability
Assay: Anticancer human tumor 953936-095-R-J2-PDC patient-derived cervical squamous cell carcinoma cell line growth inhibition [PI3K]
Conditions: for IC50: curve of first compound; for viability, T/C: stronger effect = lower value
In short: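 Stroma-containing spheroids: tumor line, pooled-donor HUVEC, hMSC. Treatments: targeted agents with PI3K inhibitors. Dosing: clinically relevant, half-log spacing, 10 microM ceiling without known Cmax. Read-out: cell viability.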

[1] = second compound 0.00316 µM, first compound 0.0316 µM
[2] = second compound 0.00316 µM, first compound 0.1 µM
[3] = second compound 0.00316 µM, first compound 0.316 µM
[4] = second compound 0.00316 µM, first compound 1 µM
[5] = second compound 0.00316 µM, first compound 3.16 µM
[6] = second compound 0.00316 µM, first compound 10 µM
[7] = second compound 0.01 µM, first compound 0.0316 µM
[8] = second compound 0.01 µM, first compound 0.1 µM
[9] = second compound 0.01 µM, first compound 0.316 µM
[10] = second compound 0.01 µM, first compound 1 µM
[11] = second compound 0.01 µM, first compound 3.16 µM
[12] = second compound 0.01 µM, first compound 10 µM
[13] = second compound 0.0316 µM, first compound 0.0316 µM
[14] = second compound 0.0316 µM, first compound 0.1 µM
[15] = second compound 0.0316 µM, first compound 0.316 µM
[16] = second compound 0.0316 µM, first compound 1 µM
[17] = second compound 0.0316 µM, first compound 3.16 µM
[18] = second compound 0.0316 µM, first compound 10 µM
[19] = second compound 0.1 µM, first compound 0.0316 µM
[20] = second compound 0.1 µM, first compound 0.1 µM
[21] = second compound 0.1 µM, first compound 0.316 µM
[22] = second compound 0.1 µM, first compound 1 µM
[23] = second compound 0.1 µM, first compound 3.16 µM
[24] = second compound 0.1 µM, first compound 10 µM
[25] = second compound 0.316 µM, first compound 0.0316 µM
[26] = second compound 0.316 µM, first compound 0.1 µM
[27] = second compound 0.316 µM, first compound 0.316 µM
[28] = second compound 0.316 µM, first compound 1 µM
[29] = second compound 0.316 µM, first compound 3.16 µM
[30] = second compound 0.316 µM, first compound 10 µM
[31] = second compound 1 µM, first compound 0.0316 µM
[32] = second compound 1 µM, first compound 0.1 µM
[33] = second compound 1 µM, first compound 0.316 µM
[34] = second compound 1 µM, first compound 1 µM
[35] = second compound 1 µM, first compound 3.16 µM
[36] = second compound 1 µM, first compound 10 µM
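Note: spheroids exposed to compounds for seven days before read-out.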

**Q.** What does the source list for `CCCS(=O)(=O)Nc1ccc(F)c(C(=O)c2c[nH]c3ncc(-c4ccc(Cl)cc4)cc23)c1F` + COc1c(OCCCN2CCOCC2)ccc2c3n(c(=NC(=O)c4cnc(N)nc4)nc12)CCN3?
**A.** IC50 (second compound 0.00316 µM): 5050 nM; IC50 (second compound 0.01 µM): 4630 nM; IC50 (second compound 0.0316 µM): < 31.6 nM; IC50 (second compound 0.1 µM): < 31.6 nM; IC50 (second compound 0.316 µM): < 31.6 nM; IC50 (second compound 1 µM): < 31.6 nM; viability, T/C [1]: 81.3%; viability, T/C [2]: 94.1%; viability, T/C [3]: 85.1%; viability, T/C [4]: 93.1%; viability, T/C [5]: 83.7%; viability, T/C [6]: 0.64%; viability, T/C [7]: 73.6%; viability, T/C [8]: 72.5%; viability, T/C [9]: 73.8%; viability, T/C [10]: 78.4%; viability, T/C [11]: 74.5%; viability, T/C [12]: 0.66%; viability, T/C [13]: 50.7%; viability, T/C [14]: 46%; viability, T/C [15]: 40.8%; viability, T/C [16]: 45.7%; viability, T/C [17]: 37.6%; viability, T/C [18]: 2.52%; viability, T/C [19]: 18.3%; viability, T/C [20]: 17.4%; viability, T/C [21]: 17.1%; viability, T/C [22]: 18.9%; viability, T/C [23]: 17.3%; viability, T/C [24]: 0.92%; viability, T/C [25]: 7.34%; viability, T/C [26]: 5.95%; viability, T/C [27]: 6.85%; viability, T/C [28]: 7.94%; viability, T/C [29]: 7.74%; viability, T/C [30]: 1.13%; viability, T/C [31]: 1.84%; viability, T/C [32]: 1.61%; viability, T/C [33]: 1.73%; viability, T/C [34]: 2.48%; viability, T/C [35]: 2.83%; viability, T/C [36]: 0.45%

**Q.** What does the source list for `C[C@@H](NC(=O)c1ncnc(N)c1Cl)c1ncc(C(=O)Nc2cc(C(F)(F)F)c(Cl)cn2)s1` + COc1c(OCCCN2CCOCC2)ccc2c3n(c(=NC(=O)c4cnc(N)nc4)nc12)CCN3?
**A.** IC50 (second compound 0.00316 µM): > 10000 nM; IC50 (second compound 0.01 µM): > 10000 nM; IC50 (second compound 0.0316 µM): < 31.6 nM; IC50 (second compound 0.1 µM): < 31.6 nM; IC50 (second compound 0.316 µM): < 31.6 nM; IC50 (second compound 1 µM): < 31.6 nM; viability, T/C [1]: 89.7%; viability, T/C [2]: 91.8%; viability, T/C [3]: 88.7%; viability, T/C [4]: 104%; viability, T/C [5]: 110%; viability, T/C [6]: 106%; viability, T/C [7]: 73.7%; viability, T/C [8]: 77.9%; viability, T/C [9]: 84.7%; viability, T/C [10]: 86.9%; viability, T/C [11]: 85.5%; viability, T/C [12]: 77.3%; viability, T/C [13]: 40.9%; viability, T/C [14]: 50%; viability, T/C [15]: 48.1%; viability, T/C [16]: 49.7%; viability, T/C [17]: 54.9%; viability, T/C [18]: 48.7%; viability, T/C [19]: 19.3%; viability, T/C [20]: 22%; viability, T/C [21]: 22.8%; viability, T/C [22]: 21.9%; viability, T/C [23]: 23%; viability, T/C [24]: 20.7%; viability, T/C [25]: 7.52%; viability, T/C [26]: 8.48%; viability, T/C [27]: 7.48%; viability, T/C [28]: 9.8%; viability, T/C [29]: 10.3%; viability, T/C [30]: 7.69%; viability, T/C [31]: 1.88%; viability, T/C [32]: 2.05%; viability, T/C [33]: 2.83%; viability, T/C [34]: 2.99%; viability, T/C [35]: 3.46%; viability, T/C [36]: 3.33%

**Q.** For `Cn1ncnc1[C@H]1c2n[nH]c(=O)c3cc(F)cc(c23)N[C@@H]1c1ccc(F)cc1` + COc1c(OCCCN2CCOCC2)ccc2c3n(c(=NC(=O)c4cnc(N)nc4)nc12)CCN3, which IC50 (second compound 0.00316 µM) is on record?
**A.** > 100 nM

**Q.** What about the IC50 (second compound 0.01 µM) of the same compound?
**A.** > 100 nM

**Q.** What about the IC50 (second compound 0.0316 µM) of the same compound?
**A.** < 0.316 nM

**Q.** And the IC50 (second compound 0.1 µM)?
**A.** < 0.316 nM

**Q.** What about the IC50 (second compound 0.316 µM) of the same compound?
**A.** < 0.316 nM

**Q.** And the IC50 (second compound 1 µM)?
**A.** < 0.316 nM

**Q.** And the viability, T/C (second compound 0.00316 µM, first compound 0.000316 µM)?
**A.** 83%

**Q.** And the viability, T/C (second compound 0.00316 µM, first compound 0.001 µM)?
**A.** 102%

**Q.** And the viability, T/C (second compound 0.00316 µM, first compound 0.00316 µM)?
**A.** 93.9%

**Q.** And the viability, T/C (second compound 0.00316 µM, first compound 0.01 µM)?
**A.** 85.2%

**Q.** What about the viability, T/C [1] of the same compound?
**A.** 81.6%

**Q.** And the viability, T/C [2]?
**A.** 78.5%

**Q.** And the viability, T/C (second compound 0.01 µM, first compound 0.000316 µM)?
**A.** 71%

**Q.** What about the viability, T/C (second compound 0.01 µM, first compound 0.001 µM) of the same compound?
**A.** 85.1%

**Q.** And the viability, T/C (second compound 0.01 µM, first compound 0.00316 µM)?
**A.** 81.1%

**Q.** And the viability, T/C (second compound 0.01 µM, first compound 0.01 µM)?
**A.** 72.1%

**Q.** What about the viability, T/C [7] of the same compound?
**A.** 67.3%

**Q.** And the viability, T/C [8]?
**A.** 68.2%

**Q.** What about the viability, T/C (second compound 0.0316 µM, first compound 0.000316 µM) of the same compound?
**A.** 44.6%

**Q.** And the viability, T/C (second compound 0.0316 µM, first compound 0.001 µM)?
**A.** 39.1%

**Q.** And the viability, T/C (second compound 0.0316 µM, first compound 0.00316 µM)?
**A.** 41%

**Q.** And the viability, T/C (second compound 0.0316 µM, first compound 0.01 µM)?
**A.** 43%

**Q.** What about the viability, T/C [13] of the same compound?
**A.** 39.3%

**Q.** And the viability, T/C [14]?
**A.** 35.8%

**Q.** What about the viability, T/C (second compound 0.1 µM, first compound 0.000316 µM) of the same compound?
**A.** 19%

**Q.** What about the viability, T/C (second compound 0.1 µM, first compound 0.001 µM) of the same compound?
**A.** 18.1%

**Q.** And the viability, T/C (second compound 0.1 µM, first compound 0.00316 µM)?
**A.** 18.2%

**Q.** And the viability, T/C (second compound 0.1 µM, first compound 0.01 µM)?
**A.** 18.9%

**Q.** And the viability, T/C [19]?
**A.** 19.9%

**Q.** And the viability, T/C [20]?
**A.** 17.4%

**Q.** What about the viability, T/C (second compound 0.316 µM, first compound 0.000316 µM) of the same compound?
**A.** 6.63%

**Q.** What about the viability, T/C (second compound 0.316 µM, first compound 0.001 µM) of the same compound?
**A.** 6.64%

**Q.** What about the viability, T/C (second compound 0.316 µM, first compound 0.00316 µM) of the same compound?
**A.** 7.07%

**Q.** And the viability, T/C (second compound 0.316 µM, first compound 0.01 µM)?
**A.** 7.8%

**Q.** What about the viability, T/C [25] of the same compound?
**A.** 6.66%

**Q.** What about the viability, T/C [26] of the same compound?
**A.** 5.37%

**Q.** And the viability, T/C (second compound 1 µM, first compound 0.000316 µM)?
**A.** 1.68%

**Q.** What about the viability, T/C (second compound 1 µM, first compound 0.001 µM) of the same compound?
**A.** 1.6%

**Q.** What about the viability, T/C (second compound 1 µM, first compound 0.00316 µM) of the same compound?
**A.** 1.91%

**Q.** And the viability, T/C (second compound 1 µM, first compound 0.01 µM)?
**A.** 1.67%

**Q.** What about the viability, T/C [31] of the same compound?
**A.** 1.93%

**Q.** And the viability, T/C [32]?
**A.** 1.28%
